Measured values from article PMC8231113, “Protein Secondary Structure Affects Glycan Clustering in Native Mass Spectrometry” (Life, 2021).
Read-outs that look alike come from different tables or passages of the source.

Columns and labels:
[1] = target: GII.4 Saga P dimer (Norovirus GII.4 (human norovirus), UniProt B5BTR7); test: Native MS, specific glycan binding to P dimer after reference protein correction; set-up: species or system human norovirus (hNoV); details: for Kd: read-out: KD for HBGA B
Procedure: (§1) Prior to MS analysis, purified P dimers were buffer exchanged to 150 mM ammonium acetate (Sigma-Aldrich, reagent grade ≥98%) at pH 7 via centrifugal filter units at 12,000× g at 4 °C (Vivaspin 500, MWCO 10000, Sartorius). Glycans for native MS analysis were mixed with 1 µM (per monomer) purified GII.4 Saga P dimer and 3 µM of the reference proteins at indicated concentrations. Native mass spectra were measured at room temperature in positive ion mode on a high mass modified LCT Premier mass spectrometer (Waters/Micromass, UK and MS Vision, the Netherlands) with a nano-ESI source. In house-made gold-coated electrospray capillaries were used for direct-sample infusion without any accessory chromatographic separation. The voltages and pressures were optimized for non-covalent protein complexes. The gas pressure used in the source hexapole was set between 6.5 and 6.8 × 10^−2 mbar argon optimized for minimal complex dissociation and the backing pressure of the source roughing pump was set between 7.0 and 8.5 mbar. Spectra were recorded with applied voltages for the capillary and cone of 1.20 kV and 240 V, respectively. Note that charge state distributions for P dimers were sometimes slightly shifted as was the degree of glycan clustering per charge state. These changes were highly variable and not quantifiable.
(§2) For calibration of the raw data, a 25 mg/mL cesium iodide spectrum from the same day was used. MassLynx V4.1 (Waters, Manchester, UK) was used to assign peak series to protein species and to determine the mass after minimal smoothing. Furthermore, OriginPro 2016 SR2 (OriginLab, Northampton, MA, USA) was used for spectral deconvolution and curve fitting. Correction for nonspecific protein-ligand clustering was performed as described. Corrected peak areas were averaged and normalized to the free-protein signal. Data were based on at least three independent measurements. Python code Panda and Numpy package were used to calculate the specific binding of P dimers according to the glycan clustering ratio obtained from the selected reference protein candidates. Seaborn and matplotlib.pyplot package were imported into a python script to plot the results. The module of sklearn.linear model was applied for linear regression. The matplotlib and heatmap package were used to plot the heatmap.
Data from native ESI MS measurements were translated into dissociation constants (KD values). The detailed calculations were based on the equations listed below. A protein (P) and a glycan ligand (L) form a complex through non-covalent interactions leading to a reversible association described by (Equation (1)):(1) P+L⇌PL when equilibrium is reached, the KD can be calculated directly from the concentrations via the law of mass action (Equation (2)):(2) KD=[Pfree][Lfree]/[PL]
(§3) Theoretically, the KD is calculated by measuring the concentration of the three components (Pfree, Lfree, PL) in solution. Usually, these values are only indirectly accessible because they require ligand titration up to binding saturation. However, native MS allows for the directly measurement of Pfree and PL, from which Lfree can be calculated using the input concentrations. In the present work, the non-covalent interaction was measured in the gas phase assuming identical ESI and detection efficiency for free and glycan-associated proteins, both for the analyte and the reference protein. […] For P dimers, the equations reflect glycan binding to the individual monomers assuming that binding sites on each monomer are equal and independent.
Using R described in Equation (3), the KD calculation can be re-written into Equation (4) with the known initial concentration of glycan ligand [L0] and protein [P0], adapted from Sun et al.:(3) R=PLequil∕Pequil=∑nA(PL^n+)∕n∕∑nA(P^n+)∕n (4) KD =L0−RP0/1+R/R […]

[2] = target: T1, L-lactic dehydrogenase from rabbit muscle (LDH) (Oryctolagus cuniculus, UniProt P13491); test: Native MS glycan clustering to reference protein LDH; format: binding; details: on LDH
T1 construct: L-lactic dehydrogenase from rabbit muscle (LDH, CAS number 9001-60-9); purchased Sigma-Aldrich (Merck, Germany); host or cells: rabbit muscle
Procedure: as §1, §2, §3
Using R described in Equation (3), the KD calculation can be re-written into Equation (4) with the known initial concentration of glycan ligand [L0] and protein [P0], adapted from Sun et al.:(3) R=PLequil∕Pequil=∑nA(PL^n+)∕n∕∑nA(P^n+)∕n (4) KD =L0−RP0/1+R/R
For the carbohydrate-binding experiments, it was essential to keep the initial protein concentrations and pH value constant during the analysis of the protein-carbohydrate solutions. While acidification occurs in any ESI droplet, the remaining solution in the capillary changes pH over time. Therefore, accumulated spectra were obtained within 10 min after the voltages were applied to minimize the influence of pH changes during the measurements. […]

[3] = target: wildtype GII.4 Saga P dimer; details: wildtype P dimer; read-out: KD determined by NMR; cited from earlier work
[4] = ref. protein ADH, glycan 100 µM
[5] = ref. protein ADH, glycan 200 µM
[6] = ref. protein ADH, glycan 300 µM
[7] = ref. protein ADH, glycan 400 µM
[8] = ref. protein ADH, glycan 500 µM
[9] = ref. protein Cyto c, glycan 100 µM
[10] = ref. protein Cyto c, glycan 200 µM
[11] = ref. protein Cyto c, glycan 300 µM
[12] = ref. protein Cyto c, glycan 400 µM
[13] = ref. protein Cyto c, glycan 500 µM
[14] = ref. protein GFP, glycan 100 µM
[15] = ref. protein GFP, glycan 200 µM
[16] = ref. protein GFP, glycan 300 µM
[17] = ref. protein GFP, glycan 400 µM
[18] = ref. protein GFP, glycan 500 µM
[19] = ref. protein LDH, glycan 100 µM
[20] = ref. protein LDH, glycan 200 µM
[21] = ref. protein LDH, glycan 300 µM
[22] = ref. protein LDH, glycan 400 µM
[23] = ref. protein LDH, glycan 500 µM
[24] = ref. protein Myo, glycan 100 µM
[25] = ref. protein Myo, glycan 200 µM
[26] = ref. protein Myo, glycan 300 µM
[27] = ref. protein Myo, glycan 400 µM
[28] = ref. protein Myo, glycan 500 µM
[29] = ref. protein Ubq, glycan 100 µM
[30] = ref. protein Ubq, glycan 200 µM
[31] = ref. protein Ubq, glycan 300 µM
[32] = ref. protein Ubq, glycan 400 µM
[33] = ref. protein Ubq, glycan 500 µM
[34] = ref. protein apo-TFF, glycan 100 µM
[35] = ref. protein apo-TFF, glycan 200 µM
[36] = ref. protein apo-TFF, glycan 300 µM
[37] = ref. protein apo-TFF, glycan 400 µM
[38] = ref. protein apo-TFF, glycan 500 µM

With `CC(=O)N[C@H]1[C@@H](O[C@H]2[C@@H](O)[C@@H](CO)O[C@@H](O[C@H]3[C@H](O)[C@@H](CO)OC(O)[C@@H]3NC(C)=O)[C@@H]2O[C@@H]2O[C@@H](C)[C@@H](O)[C@@H](O)[C@@H]2O)O[C@H](CO)[C@H](O)[C@@H]1O` (stereo partly drawn) [HBGA A, GalNAcα1-3(Fucα-2)Galβ1-3GlcNAc] the “Bound number of carbohydrates on Saga P dimer” value (“Bound number … on Saga P dimer” below) [1, 4] was 0, the “Bound number … on Saga P dimer” value [1, 5] was 0 and the “Bound number … on Saga P dimer” value [1, 6] was 0. For the same compound, the “Bound number … on Saga P dimer” value [1, 7] was 0, the “Bound number … on Saga P dimer” value [1, 8] was 0 and the “Bound number … on Saga P dimer” value ([1]; ref. protein CA, glycan 100 µM) was 1. The “Bound number … on Saga P dimer” value ([1]; ref. protein CA, glycan 200 µM) was 1, the “Bound number … on Saga P dimer” value ([1]; ref. protein CA, glycan 300 µM) was 1 and the “Bound number … on Saga P dimer” value ([1]; ref. protein CA, glycan 400 µM) was 1. For the same compound, the “Bound number … on Saga P dimer” value ([1]; ref. protein CA, glycan 500 µM) was 1, the “Bound number … on Saga P dimer” value [1, 9] was 2 and the “Bound number … on Saga P dimer” value [1, 10] was 3. The “Bound number … on Saga P dimer” value [1, 11] was 3, the “Bound number … on Saga P dimer” value [1, 12] was 4 and the “Bound number … on Saga P dimer” value [1, 13] was 4. For the same compound, the “Bound number … on Saga P dimer” value [1, 14] was 1, the “Bound number … on Saga P dimer” value [1, 15] was 1 and the “Bound number … on Saga P dimer” value [1, 16] was 1. For the same compound, the “Bound number … on Saga P dimer” value [1, 17] was 1, the “Bound number … on Saga P dimer” value [1, 18] was 1 and the “Bound number … on Saga P dimer” value [1, 19] was 0. The “Bound number … on Saga P dimer” value [1, 20] was 0, the “Bound number … on Saga P dimer” value [1, 21] was 0 and the “Bound number … on Saga P dimer” value [1, 22] was 0. For the same compound, the “Bound number … on Saga P dimer” value [1, 23] was 1, the “Bound number … on Saga P dimer” value [1, 24] was 2 and the “Bound number … on Saga P dimer” value [1, 25] was 3. The “Bound number … on Saga P dimer” value [1, 26] was 3, the “Bound number … on Saga P dimer” value [1, 27] was 3 and the “Bound number … on Saga P dimer” value [1, 28] was 4. For the same compound, the “Bound number … on Saga P dimer” value [1, 29] was 2, the “Bound number … on Saga P dimer” value [1, 30] was 3 and the “Bound number … on Saga P dimer” value [1, 31] was 4. The “Bound number … on Saga P dimer” value [1, 32] was 4, the “Bound number … on Saga P dimer” value [1, 33] was 4 and the “Bound number … on Saga P dimer” value [1, 34] was 0. For the same compound, the “Bound number … on Saga P dimer” value [1, 35] was 0, the “Bound number … on Saga P dimer” value [1, 36] was 1 and the “Bound number … on Saga P dimer” value [1, 37] was 1. The “Bound number … on Saga P dimer” value [1, 38] was 1.
With `CC(=O)N[C@H]1C(O)O[C@H](CO)[C@@H](O)[C@@H]1O[C@@H]1O[C@H](CO)[C@H](O)[C@H](O[C@H]2O[C@H](CO)[C@H](O)[C@H](O)[C@H]2O)[C@H]1O[C@@H]1O[C@@H](C)[C@@H](O)[C@@H](O)[C@@H]1O` (stereo partly drawn) [HBGA B, Galα1-3(Fucα1-2)Galβ1-3GlcNAc] the “specific binding after ADH based protein clustering correction” value ([1]; Gb4: any listed glycan concentration, HBGA B: 500 µM) was “a single binding event”, the Kd ([1]; correction with ref. protein ADH) was 24000 ± 16000 µM and the Kd ([1]; correction with ref. protein CA) was 400 ± 100 µM. The Kd ([1]; correction with ref. protein Cyt c) was 160 ± 50 µM, the Kd ([1]; correction with ref. protein GFP) was 900 ± 350 µM and the Kd ([1]; correction with ref. protein Myo) was 250 ± 100 µM. For the same compound, the Kd ([1]; correction with ref. protein Ubq) was 200 ± 130 µM, the “Bound number … on Saga P dimer” value [1, 4] was 0 and the “Bound number … on Saga P dimer” value [1, 5] was 0. For the same compound, the “Bound number … on Saga P dimer” value [1, 6] was 0, the “Bound number … on Saga P dimer” value [1, 7] was 0 and the “Bound number … on Saga P dimer” value [1, 8] was 1. For the same compound, the “Bound number … on Saga P dimer” value ([1]; ref. protein CA, glycan 100 µM) was 1, the “Bound number … on Saga P dimer” value ([1]; ref. protein CA, glycan 200 µM) was 2 and the “Bound number … on Saga P dimer” value ([1]; ref. protein CA, glycan 300 µM) was 2. For the same compound, the “Bound number … on Saga P dimer” value ([1]; ref. protein CA, glycan 400 µM) was 2, the “Bound number … on Saga P dimer” value ([1]; ref. protein CA, glycan 500 µM) was 2 and the “Bound number … on Saga P dimer” value [1, 9] was 2. The “Bound number … on Saga P dimer” value [1, 10] was 3, the “Bound number … on Saga P dimer” value [1, 11] was 4 and the “Bound number … on Saga P dimer” value [1, 12] was 4. The “Bound number … on Saga P dimer” value [1, 13] was 4, the “Bound number … on Saga P dimer” value [1, 14] was 1 and the “Bound number … on Saga P dimer” value [1, 15] was 1. The “Bound number … on Saga P dimer” value [1, 16] was 2, the “Bound number … on Saga P dimer” value [1, 17] was 2 and the “Bound number … on Saga P dimer” value [1, 18] was 2. For the same compound, the “Bound number … on Saga P dimer” value [1, 19] was 0, the “Bound number … on Saga P dimer” value [1, 20] was 0 and the “Bound number … on Saga P dimer” value [1, 21] was 0. The “Bound number … on Saga P dimer” value [1, 22] was 0, the “Bound number … on Saga P dimer” value [1, 23] was 1 and the “Bound number … on Saga P dimer” value [1, 24] was 2. For the same compound, the “Bound number … on Saga P dimer” value [1, 25] was 3, the “Bound number … on Saga P dimer” value [1, 26] was 3 and the “Bound number … on Saga P dimer” value [1, 27] was 3. The “Bound number … on Saga P dimer” value [1, 28] was 4, the “Bound number … on Saga P dimer” value [1, 29] was 2 and the “Bound number … on Saga P dimer” value [1, 30] was 3. The “Bound number … on Saga P dimer” value [1, 31] was 4, the “Bound number … on Saga P dimer” value [1, 32] was 4 and the “Bound number … on Saga P dimer” value [1, 33] was 4. For the same compound, the “Bound number … on Saga P dimer” value [1, 34] was 1, the “Bound number … on Saga P dimer” value [1, 35] was 1 and the “Bound number … on Saga P dimer” value [1, 36] was 1. The “Bound number … on Saga P dimer” value [1, 37] was 1, the “Bound number … on Saga P dimer” value [1, 38] was 2 and the “Glycan-Clustering Ratio R” value ([2]; 100 µM glycan) was 0.38±0.03. The “Glycan-Clustering Ratio R” value ([2]; 200 µM glycan) was 0.54±0.05, the “Glycan-Clustering Ratio R” value ([2]; 300 µM glycan) was 0.69±0.02 and the “Glycan-Clustering Ratio R” value ([2]; 400 µM glycan) was 0.77±0.05. For the same compound, the “Glycan-Clustering Ratio R” value ([2]; 500 µM glycan) was 1.02 ± 0.04 and the Kd [3] was 12000 µM.
